Reference: patent US20060035879A1, “Organic Compounds” (priority 2002, published 2006)

Columns and labels:
[1] = tested on: rat carotid artery balloon injury; assay: Rat carotid artery balloon injury model; assay type: in vivo
[2] = Drug release from polymer coatings in aqueous solution; assay type: physicochemical; conditions: PBS pH 7.4 or PEG/water 40/60 v/v, 37°, solutions changed daily; stable = less than 10% variation of the drug release rate
Experimental: (§1) A stent (e.g. a Multi-Link Vision stent, Guidant Corp.; or a DRIVER stent, Medtronic Corp.) is weighed and then mounted on a rotating or other support for coating with a polymeric or other synthetic or biological carrier used as a drug reservoir. In an exemplary carrier application procedure, while the stent is rotating, a 100 μl aliquot of a solution of polylactide glycolide, 0.75 mg/ml of pimecrolimus and 0.0015 mg/ml 2,6-di-tert-butyl-4-methylphenol dissolved in a 50:50 mixture of methanol and tetrahydrofuran, is coated onto it. The coated stent is removed from the support and allowed to air-dry. After a final weighing the amount of coating on the stent is determined.
Drug Release from Polymer Coatings in Aqueous Solution
Four 2 cm pieces of stents coated as described in Example 3 above are placed into 100 ml of PBS having a pH of 7.4. Another 4 pieces from each series are placed into 100 ml of PEG/water solution (40/60 v/v, MW of PEG=400). The stent pieces are incubated at 37° in a shaker. The buffer and PEG solutions are changed daily and different assays are performed on the solution to determine the released pimecrolimus concentrations. […] The term “stable pimecrolimus” means that less than 10% variation of the drug release rate is observed.

[3] = tested on: New Zealand White rabbit iliac arteries; assay: Rabbit iliac stent model (in-stent restenosis); assay type: in vivo; conditions: oral gavage, vs placebo
Experimental: Inhibition of In-Stent Restenosis and Proximal and Distal Lesion Development at 28 Days in the Rabbit Iliac Stent Model A combined angioplasty and stenting procedure is performed in New Zealand White rabbit iliac arteries. Iliac artery balloon injury is performed by inflating a 3.0×9.0 mm angioplasty balloon in the mid-portion of the artery followed by “pull-back” of the catheter for 1 balloon length. Balloon injury is repeated 2 times, and a 3.0×12 mm stent is deployed at 6 atm for 30 seconds in the iliac artery. Balloon injury and stent placement is then performed on the contralateral iliac artery in the same manner. A post-stent deployment angiogram is performed. All animals receive oral aspirin 40 mg/day daily as anti-platelet therapy and are fed standard low-cholesterol rabbit chow. Twenty-eight days after stenting, animals are anesthetized and euthanized and the arterial tree is perfused at 100 mmHg with lactated Ringer's solution for several minutes, then perfused with 10% formalin at 100 mmHg for 15 minutes. The vascular section between the distal aorta and the proximal femoral arteries is excised and cleaned of periadventitial tissue. Three sections of artery are sampled: the stented section, the artery 5 mm immediately proximal to the stent and the artery 5 mm immediately distal to the stent is embedded in plastic. Sections are taken from the proximal, middle, and distal portions of each stent. Serial sections are also taken of the first 2 mm proximal and distal to the stent. Sections are stained with hematoxylin-eosin and Movat pentachrome stains. […] The neointima and neointimal thickness is measured both at and between the stent struts. The vessel area is measured as the area within the EEL. Cells staining positively as macrophages are counted in the sections taken from the stented area of artery. Data are expressed as mean ±SEM. Statistical analysis of the histologic data is accomplished using ANOVA due to the fact that two stented arteries are measured per animal with a mean generated per animal. […]

[4] = Drug release from polymer coatings in plasma; assay type: physicochemical; conditions: citrated human plasma, 37°, changed daily; stable = less than 10% variation of the drug release rate
Experimental: as §1
Drug Release from Polymer Coatings in Plasma
Release of pimecrolimus in plasma is also studied. 1 cm pieces of a coated stent are put into 1 ml of citrated human plasma (from Helena Labs) in lyophilized form and reconstituted by adding 1 ml of sterile deionized water. Three sets of stent plasma solutions are incubated at 37° and the plasma is changed daily. Different assays are performed on the solution to determine the released pimecrolimus concentrations.

[5] = tested on: allogeneic kidney transplantation; conditions: oral administration; cited from earlier work

| Compound | constrictive remodeling ([1]; local administration to the adventitia) | infiltration of CD45+ leukocytes ([1]; local administration to the adventitia via catheter/Alzet minipump, day 1) | early and late neointimal lesions ([1]; local administration to the adventitia, early 9 days and late 21-28 days post-ballooning) | CD45-positive leukocyte infiltration into the vessel wall and adventitia ([1]; oral dosing, 1 day post-balloon injury) | neointimal lesion formation following balloon injury ([1]; oral dosing, at 9 and 12 days) | pimecrolimus release from coated stents [2] | extent of restenotic lesion formation ([3]; 28 days after stenting) | lesion formation in the portions of artery immediately proximal and immediately distal to the stent ([3]; 28 days) | number of inflammatory cells, especially in the area surrounding the stent struts ([3]; 28 days) | pimecrolimus release from coated stents in plasma [4] | minimum effective dose (MED) [5] [mg/kg] |
| --- | --- | --- | --- | --- | --- | --- | --- | --- | --- | --- | --- |
| CC[C@@H]1/C=C(\C)C[C@H](C)C[C@H](OC)[C@H]2O[C@@](O)(C(=O)C(=O)N3CCCC[C@H]3C(=O)O[C@H](/C(C)=C/[C@@H]3CC[C@H](Cl)[C@H](OC)C3)[C@H](C)[C@@H](O)CC1=O)[C@H](C)C[C@@H]2OC [pimecrolimus, {[1E-(1R,3R,4S)]1R,9S,12S,13R,14S,17R,18E,21S,23S,24R,25S,27R}-12-[2-(4-chloro-3-methoxycyclohexyl)-1-methylvinyl]-17-ethyl-1,14-dihydroxy-23,25-dimethoxy-13,19,21,27-tetramethyl-11,28,dioxa-4-azatricyclo [22.3.1.0(4,9)]octacos-18-ene-2,3,10,16-tetraone] | potent inhibition | potent inhibition | potent inhibition | significantly reduce | significantly reduce | stable pimecrolimus release | marked reduction | inhibited | significantly reduced | stable pimecrolimus release | – |
| C=CC[C@@H]1/C=C(\C)C[C@H](C)C[C@H](OC)[C@H]2O[C@@](O)(C(=O)C(=O)N3CCCC[C@H]3C(=O)O[C@H](/C(C)=C/[C@@H]3CC[C@@H](O)[C@H](OC)C3)[C@H](C)[C@@H](O)CC1=O)[C@H](C)C[C@@H]2OC [tacrolimus] | – | – | – | – | – | – | – | – | – | – | 14 |
